Measured values as given in ChEMBL document CHEMBL1133796, “Antagonists of the human CCR5 receptor as anti-HIV-1 agents. Part 2: structure-activity relationships for substituted 2-Aryl-1-[N-(methyl)-N-(phenylsulfonyl)amino]-4-(piperidin-1-yl)butanes” (Bioorg Med Chem Lett, 2001).
Calls of active or inactive are those of the source. No cut-off for these calls is given here.

Key:
[1] = target: T1, C-C chemokine receptor type 5 (Homo sapiens, UniProt P51681); assay: Inhibitory activity against specific binding of [125I]-MIP-1 alpha to human CCR5 receptor.
Target sequence in this assay (P51681 whole entry): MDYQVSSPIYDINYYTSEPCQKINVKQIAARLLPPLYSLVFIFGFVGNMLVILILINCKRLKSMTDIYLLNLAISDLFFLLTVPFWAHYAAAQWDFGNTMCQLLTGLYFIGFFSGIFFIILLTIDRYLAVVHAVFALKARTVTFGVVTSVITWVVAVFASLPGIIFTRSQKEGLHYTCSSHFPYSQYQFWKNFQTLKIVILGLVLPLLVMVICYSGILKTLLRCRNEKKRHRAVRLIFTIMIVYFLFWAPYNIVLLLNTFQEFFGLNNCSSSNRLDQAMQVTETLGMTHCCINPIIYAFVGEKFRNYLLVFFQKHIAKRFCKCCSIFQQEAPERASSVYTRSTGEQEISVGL

[2] = target: T1, C-C chemokine receptor type 5; assay: Inhibitory activity against specific binding of [125I]-MIP-1 alpha to human CCR5 receptor at a concentration of approximately 10000 nM
Target sequence in this assay (P51681 whole entry, looked up): as the sequence (P51681 whole entry) above

[3] = target: T1, C-C chemokine receptor type 5; assay: Inhibitory activity against specific binding of [125I]-MIP-1 alpha to human CCR5 receptor at a concentration of 10000 nM
Target sequence in this assay (P51681 whole entry, looked up): as the sequence (P51681 whole entry) above

[4] = target: C-C chemokine receptor type 2 (Homo sapiens, UniProt P41597); assay: Compound concentration that causes 50 % inhibition of binding of specific radioligand to human CCR2 receptor
[5] = Compound was evaluated in an isolated peripheral blood mononuclear cell (PBMC) viral replication assay using the R5-tropic strain SF-162 isolate; type: functional; settings: Homo sapiens
[6] = target: T2, C-C chemokine receptor type 1 (Homo sapiens, UniProt P32246); assay: Compound concentration that causes 50 % inhibition of binding of specific radioligand to human CCR1 receptor
T2 sequence (P32246 whole entry): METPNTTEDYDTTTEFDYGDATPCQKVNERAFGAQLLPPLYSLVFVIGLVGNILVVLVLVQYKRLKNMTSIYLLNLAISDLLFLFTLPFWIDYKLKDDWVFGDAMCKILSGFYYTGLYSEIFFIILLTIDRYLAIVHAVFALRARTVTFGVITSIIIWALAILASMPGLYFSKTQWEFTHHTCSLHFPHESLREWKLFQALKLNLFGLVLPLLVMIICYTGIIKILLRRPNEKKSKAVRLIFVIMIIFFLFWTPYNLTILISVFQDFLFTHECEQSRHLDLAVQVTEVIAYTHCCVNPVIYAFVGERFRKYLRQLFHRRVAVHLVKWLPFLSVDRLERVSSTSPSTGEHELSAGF

[7] = Compound was evaluated in an isolated peripheral blood mononuclear cell (PBMC) viral replication assay using the R5-tropic HIV-1 YU-2 isolate.; type: functional; settings: Homo sapiens
[8] = Half-life period was evaluated in rat, after administering 1 mg/kg intravenously; type: ADME, organism-based; parameters: dose 1 mg/kg, route intravenous; settings: in vivo, iv
[9] = target: T3, C-C chemokine receptor type 3 (Homo sapiens, UniProt P51677); assay: Compound concentration that causes 50 % inhibition of binding of specific radioligand to human CCR3 receptor
T3 sequence (P51677 whole entry): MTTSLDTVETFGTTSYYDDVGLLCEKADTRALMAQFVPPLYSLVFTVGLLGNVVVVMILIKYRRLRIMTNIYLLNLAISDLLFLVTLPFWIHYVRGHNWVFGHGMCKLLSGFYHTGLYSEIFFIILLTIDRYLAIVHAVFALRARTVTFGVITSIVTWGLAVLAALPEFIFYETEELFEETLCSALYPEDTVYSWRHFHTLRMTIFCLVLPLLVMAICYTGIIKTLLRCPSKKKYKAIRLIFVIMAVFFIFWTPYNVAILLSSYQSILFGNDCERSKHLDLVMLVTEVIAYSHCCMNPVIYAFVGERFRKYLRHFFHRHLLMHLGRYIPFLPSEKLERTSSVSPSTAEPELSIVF

[10] = target: C-X-C chemokine receptor type 4 (Homo sapiens) (UniProt P61073); assay: Compound concentration that causes 50 % inhibition of binding of specific radioligand to human CXCR4 receptor
Homo sapiens = species: Homo sapiens; assay: Compound was evaluated in an isolated peripheral blood mononuclear cell (PBMC) viral replication assay using the X4-tropic NL4-3 strain; No inhibition; type: functional
[11] = Bioavailability (F) was evaluated in rat, after administering 1 mg/kg intravenously; type: ADME, organism-based; settings: in vivo, iv
[12] = target: T1, C-C chemokine receptor type 5; assay: Inhibitory activity against specific binding of [125I]-MIP-1 alpha to human CCR5 receptor at a concentration greater than 1000 nM
Target sequence in this assay (P51681 whole entry, looked up): as the sequence (P51681 whole entry) above

C-X-C chemokine receptor type 4 (Homo sapiens), sequence (P61073 whole entry, looked up): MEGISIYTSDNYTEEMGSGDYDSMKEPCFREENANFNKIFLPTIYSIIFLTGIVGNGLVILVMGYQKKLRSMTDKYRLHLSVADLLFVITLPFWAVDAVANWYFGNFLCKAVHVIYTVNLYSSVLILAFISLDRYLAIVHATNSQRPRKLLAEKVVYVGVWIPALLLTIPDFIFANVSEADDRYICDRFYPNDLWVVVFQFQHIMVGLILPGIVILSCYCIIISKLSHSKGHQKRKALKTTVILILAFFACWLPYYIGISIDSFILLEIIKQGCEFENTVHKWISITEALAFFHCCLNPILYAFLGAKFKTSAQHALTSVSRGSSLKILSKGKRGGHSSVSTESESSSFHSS
C-C chemokine receptor type 2, sequence (P41597 whole entry): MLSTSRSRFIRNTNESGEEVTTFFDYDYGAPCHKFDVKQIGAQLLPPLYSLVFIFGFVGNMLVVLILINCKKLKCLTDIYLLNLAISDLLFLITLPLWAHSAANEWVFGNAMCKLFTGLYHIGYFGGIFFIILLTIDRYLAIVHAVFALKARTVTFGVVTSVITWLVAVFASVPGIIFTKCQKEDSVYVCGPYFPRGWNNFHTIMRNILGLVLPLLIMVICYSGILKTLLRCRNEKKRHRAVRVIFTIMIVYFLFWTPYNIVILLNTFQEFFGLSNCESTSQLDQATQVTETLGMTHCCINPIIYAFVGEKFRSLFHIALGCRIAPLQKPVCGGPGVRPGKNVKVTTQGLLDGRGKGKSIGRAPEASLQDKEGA

Structure (SMILES): CN(CC(CCN1CCC(c2ccccc2)CC1)c1cccc(C(F)(F)F)c1)S(=O)(=O)c1ccccc1 (centres undefined)
- IC50 [1]: 500 nM

Structure (SMILES): Cc1ccc(C(CCN2CCC(c3ccccc3)CC2)CN(C)S(=O)(=O)c2ccccc2)cc1C (centres undefined)
- IC50 [1]: 60 nM

Structure (SMILES): CN(CC(CCN1CCC(c2ccccc2)CC1)c1cccc(F)c1)S(=O)(=O)c1ccccc1 (centres undefined)
- IC50 [1]: 100 nM

Structure (SMILES): CN(CC(CCN1CCC(c2ccccc2)CC1)Cc1ccccc1)S(=O)(=O)c1ccccc1 (centres undefined)
- IC50 [1]: ~10000 nM
- inhibition [2]: 68%

Structure (SMILES): CN(CC(CCN1CCC(c2ccccc2)CC1)c1cccs1)S(=O)(=O)c1ccccc1 (centres undefined)
- IC50 [1]: 400 nM

Structure (SMILES): Cc1cc(C(CCN2CCC(c3ccccc3)CC2)CN(C)S(=O)(=O)c2ccccc2)ccc1F (centres undefined)
- IC50 [1]: 180 nM

Structure (SMILES): CN(C[C@@H](CCN1CCC2(CC1)CSc1ccccc12)c1cccc(Cl)c1)S(=O)(=O)c1ccccc1
- IC50 [1]: 270 nM

Structure (SMILES): CN(CCCCN1CCC(c2ccccc2)CC1)S(=O)(=O)c1ccccc1
- inhibition [3]: 20%

Structure (SMILES): CN(CC(CCN1CCC2(CC1)CS(=O)(=O)c1ccccc12)c1ccccc1)S(=O)(=O)c1ccccc1 (centres undefined)
- IC50 [1]: 30 nM

Structure (SMILES): CN(CC(CCN1CCC2(CC1)CSc1ccccc12)c1ccccc1)S(=O)(=O)c1ccccc1 (centres undefined)
- IC50 [1]: 450 nM

Structure (SMILES): CN(C[C@@H](CCN1CCC2(CC1)C[S+]([O-])c1ccccc12)c1cccc(Cl)c1)S(=O)(=O)c1ccccc1 (some centres undefined)
- IC50 [4]: > 10000 nM
- IC95 [5]: 800 nM
- IC50 [6]: > 10000 nM
- IC95 [7]: 1500 nM
- half-life [8]: 42 min
- IC50 [9]: > 10000 nM
- IC50 [10]: 10000 nM
- IC50 [1]: 10 nM
- NI (Homo sapiens): inactive
- bioavailability [11]: 3%

Structure (SMILES): CN(CC(CCN1CCC2(CC1)CS(=O)(=O)c1ccccc12)c1cccs1)S(=O)(=O)c1ccccc1 (centres undefined)
- IC50 [1]: 110 nM

Structure (SMILES): CN(C[C@@H](CCN1CCC2(CC1)C[S+]([O-])c1ccccc12)c1ccc(F)cc1)S(=O)(=O)c1ccccc1 (some centres undefined)
- IC50 [1]: 570 nM

Structure (SMILES): CN(C[C@@H](CCN1CCC(c2ccccc2)CC1)c1ccc(F)cc1)S(=O)(=O)c1ccccc1
- IC50 [1]: ~1000 nM

Structure (SMILES): CCc1cccc(C(CCN2CCC(c3ccccc3)CC2)CN(C)S(=O)(=O)c2ccccc2)c1 (centres undefined)
- IC50 [1]: 110 nM

Structure (SMILES): CN(C[C@@H](CCN1CCC(c2ccccc2)CC1)c1ccc2c(c1)OCO2)S(=O)(=O)c1ccccc1
- IC50 [1]: 300 nM

Structure (SMILES): CN(CC(CCN1CCC2(CC1)C[S+]([O-])c1ccccc12)c1cc(Cl)cc(Cl)c1)S(=O)(=O)c1ccccc1 (centres undefined)
- IC50 [1]: 90 nM

Structure (SMILES): CN(CC(CCN1CCC2(CC1)CS(=O)(=O)c1ccccc12)c1ccccc1Cl)S(=O)(=O)c1ccccc1 (centres undefined)
- IC50 [1]: 1300 nM

Structure (SMILES): CN(CC(CCN1CCC2(CC1)C[S+]([O-])c1ccccc12)C1CCCCC1)S(=O)(=O)c1ccccc1 (centres undefined)
- IC50 [1]: > 1000 nM
- inhibition [12]: 36%

Structure (SMILES): COc1ccc(C(CCN2CCC(c3ccccc3)CC2)CN(C)S(=O)(=O)c2ccccc2)cc1 (centres undefined)
- IC50 [1]: > 1000 nM
- inhibition [12]: 40%

Structure (SMILES): Cc1ccc(C(CCN2CCC(c3ccccc3)CC2)CN(C)S(=O)(=O)c2ccccc2)cc1 (centres undefined)
- IC50 [1]: 200 nM

Structure (SMILES): Cc1cccc(C(CCN2CCC(c3ccccc3)CC2)CN(C)S(=O)(=O)c2ccccc2)c1 (centres undefined)
- IC95 [7]: 6000 nM
- IC50 [1]: 80 nM

Structure (SMILES): CN(CC(CCN1CCC(c2ccccc2)CC1)c1ccc(F)c(F)c1)S(=O)(=O)c1ccccc1 (centres undefined)
- IC50 [1]: 570 nM

Structure (SMILES): CN(CC(CCN1CCC2(CC1)C[S+]([O-])c1ccccc12)c1cccs1)S(=O)(=O)c1ccccc1 (centres undefined)
- IC50 [1]: 180 nM

Structure (SMILES): CN(CC(CCN1CCC2(CC1)C[S+]([O-])c1ccccc12)c1ccccc1Cl)S(=O)(=O)c1ccccc1 (centres undefined)
- IC50 [1]: 2000 nM

Structure (SMILES): CN(CC(CCN1CCC(c2ccccc2)CC1)c1ccsc1)S(=O)(=O)c1ccccc1 (centres undefined)
- IC50 [1]: 100 nM
